Reference: PMC11694536 (Alzheimer's & Dementia : Translational Research & Clinical …, 2024)
In brackets after ≈: the same amount, converted by molar mass.

Tests used:
[1] = test system: protein O‐GlcNAc modification in human embryonic kidney cells; assay: Cellular protein O-GlcNAc increase; format: cell-based; details: read-out: Protein O‐GlcNAc (cellular) Relative EC50
[2] = target: human ether‐à‐go‐go (hERG) channel (Homo sapiens, UniProt Q12809); assay: hERG channel inhibition; format: biochemical
Solubility = format: physicochemical; details: phosphate buffer, pH 7.5, aqueous buffer
[3] = MDCK passive permeability; format: in vitro ADME, canine; details: dog
[4] = Plasma protein binding, mice; format: in vitro ADME; details: mouse
[5] = Phase 1 clinical safety and tolerability; format: in vivo, human
[6] = Clinical pharmacokinetics in Phase 1 studies; format: in vivo, human
[7] = Phase 2 study PROSPECT-ALZ in early symptomatic AD; format: in vivo, human; details: Prospect‐ALZ Phase 2 study; full results to be published separately
Predicted human PK = details: allometry from rat, dog, monkey PK
[8] = SAD study, single oral doses 0.15 to 16 mg

human ether‐à‐go‐go (hERG) channel, sequence (Q12809 whole entry): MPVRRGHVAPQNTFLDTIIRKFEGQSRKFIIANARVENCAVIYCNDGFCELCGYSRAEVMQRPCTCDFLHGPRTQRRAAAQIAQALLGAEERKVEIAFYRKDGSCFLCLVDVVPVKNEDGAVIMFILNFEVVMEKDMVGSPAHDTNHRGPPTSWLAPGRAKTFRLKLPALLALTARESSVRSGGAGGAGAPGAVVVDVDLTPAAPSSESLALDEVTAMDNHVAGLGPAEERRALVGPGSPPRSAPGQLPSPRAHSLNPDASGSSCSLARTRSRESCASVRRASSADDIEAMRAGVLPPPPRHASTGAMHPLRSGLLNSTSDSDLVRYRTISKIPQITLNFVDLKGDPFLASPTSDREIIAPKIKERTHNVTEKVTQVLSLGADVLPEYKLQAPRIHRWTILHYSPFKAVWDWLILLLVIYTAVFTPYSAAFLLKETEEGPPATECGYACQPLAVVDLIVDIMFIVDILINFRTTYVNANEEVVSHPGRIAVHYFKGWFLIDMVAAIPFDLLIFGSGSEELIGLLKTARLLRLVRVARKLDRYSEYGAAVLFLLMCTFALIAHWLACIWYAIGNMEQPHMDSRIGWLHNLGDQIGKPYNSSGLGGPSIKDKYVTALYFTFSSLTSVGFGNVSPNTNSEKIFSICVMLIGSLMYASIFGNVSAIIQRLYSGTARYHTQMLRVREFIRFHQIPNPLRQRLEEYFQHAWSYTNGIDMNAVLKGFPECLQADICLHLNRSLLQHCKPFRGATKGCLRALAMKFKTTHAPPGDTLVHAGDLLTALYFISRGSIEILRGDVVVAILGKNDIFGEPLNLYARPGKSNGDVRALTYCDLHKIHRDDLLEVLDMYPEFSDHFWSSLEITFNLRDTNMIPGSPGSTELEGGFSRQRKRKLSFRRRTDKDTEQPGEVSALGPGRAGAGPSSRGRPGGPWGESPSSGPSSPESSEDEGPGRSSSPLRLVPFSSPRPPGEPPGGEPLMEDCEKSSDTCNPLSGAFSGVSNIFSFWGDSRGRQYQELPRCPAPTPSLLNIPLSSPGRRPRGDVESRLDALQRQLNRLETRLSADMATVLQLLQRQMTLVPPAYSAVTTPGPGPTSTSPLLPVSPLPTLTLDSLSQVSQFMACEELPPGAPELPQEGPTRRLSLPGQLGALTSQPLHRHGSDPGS

CC(=O)Nc1nc(F)c(CN2CC[C@H](OCc3noc(C)n3)C[C@@H]2C)s1 [ceperognastat]
EC50 [1]: 0.0219 ± 0.0073 µM | IC50 [2]: 81 µM | solubility (Solubility): 1360 µg/mL (≈ 3.55 mM) | Papp [3]: 50.1 ×10⁻⁶ cm/s | fraction unbound [4]: 0.684 | participants reporting at least one TEAE ([5]; MD‐PET study, 1 mg QD 14 days): Four out of four | participants reporting TEAEs ([5]; SAD study, 13 of 23 ceperognastat-treated participants): 56.5% | participants reporting at least one TEAE ([5]; SD‐PET study, 8 of 16 participants, single oral dose): 50% | serious adverse events (SAEs) ([5]; all Phase 1 clinical studies): no serious adverse events | accumulation with QD dosing ([6]; MAD study, 1, 3, 7 mg QD for 14 days, day 1 vs day 14): minimal accumulation | CL/F [6, 8]: 12 L/h | V/F [6, 8]: 112 L | clinical benefit in early AD [7]: did not show evidence of clinical benefit | predicted human apparent clearance (CL/F) (Predicted human PK): 12 L/h | predicted human apparent volume of distribution (V/F) (Predicted human PK): 48 L
